In patent US20250255874A1, “Methods for Treating Immune Thrombocytopenia By Administering (R)-2-[3-[4-Amino-3-(2-Fluoro-4-Phenoxy-Phenyl)Pyrazolo[3,4-D]Pyrimidin-1-YL]Piperidine-1-Carbonyl]-4-Methyl-4-[4-(Oxetan-3-YL)Piperazin-1-YL]Pent-2-Enentrile” (Principia Biopharma Inc., priority 2022, published 2025):

Experiments:
[1] = test system: spontaneous canine pemphigus foliaceus; test: spontaneous canine pemphigus foliaceus; conditions: dog, in vivo
[2] = test system: patients with immune thrombocytopenia who initiated 400 mg BID; test: Clinical predictors of response, exploratory analysis of Phase 1/2 study (univariate logistic regression); assay type: in vivo, human
From the text: Clinical predictors were selected based on clinical considerations anticipated to be associated with platelet response and evaluated by univariate logistic regression models. For continuous variables, the t test was used to test for differences, whereas for categorical variables, the Fisher exact test was used. PK exposure at steady-state was estimated based on post hoc analysis from a previously established population PK model.

CC(C)(C=C(C#N)C(=O)N1CCC[C@@H](n2nc(-c3ccc(Oc4ccccc4)cc3F)c3c(N)ncnc32)C1)N1CCN(C2COC2)CC1 [rilzabrutinib, (R)-2-[3-[4-amino-3-(2-fluoro-4-phenoxy-phenyl)pyrazolo[3,4-d]pyrimidin-1-yl]piperidine-1-carbonyl]-4-methyl-4-[4-(oxetan-3-yl)piperazin-1-yl]pent-2-enenitrile]
anti-inflammatory effects [1]: rapid and significant anti-inflammatory effects
early responders, proportion of patients ([2]; patients who received prior rituximab): 14%
early responders, proportion of patients ([2]; patients with no prior rituximab): 48%
responders, proportion of patients ([2]; patients with prior rituximab): 23%
responders, proportion of patients ([2]; patients without prior TPO-RA): 64%
responders, proportion of patients ([2]; patients without prior rituximab): 57%
